Laboratory results from patent US8859527B2 (priority 2009, dated 2014).
Where two headings read alike, the source gives them in different places.

Legend:
P-388 leukemia = P-388 leukemia cell line; cited from earlier work
[1] = test system: A-549 (human lung adenocarcinoma cell line); test: in vitro growth inhibition of tumor cells, A-549; type: cell-based; conditions: for Inhibition effects on in vitro growth: A549, 48 hours
Protocol: (§1) The tumor strains are A-549 (human lung adenocarcinoma cell line), BGC-823 (human gastric cancer cell line), C-6 (rat neurogliocytoma cell line), Hep G2 (human hepatic cancer cell line), HL-60 (human leukemia cell line), K-562 (human erythremia cell line) and Hela (human cervical cancer cell line). […] The drug was prepared as a stock solution of 10^−2 M by using physiological saline and diluted into the test solution in a gradient composed of five concentrations: C1 5×10^−5 M, C2 10^−5 M, C3 10^−6 M, C4 10^−7 M and C5 10^−8 M.
(§2) Experimental method: different tumor cells in exponential growth phase are inoculated in 96-well plates in a certain amount and the selected samples are added after the cells are cultured for 24 hours (suspension cells can be directly added after being inoculated), after the cells are incubated at 37° C. and 5% CO2 for another 48 hours, […] is added for further incubation for another 4 hours, and finally the samples are examined on a microplate reader after dissolving with DMSO.

transplanted tumor S180 = conditions: S180 mice; for Body weight After administration / Tumor weight / Tumor-inhibition rate: once every two days, four times
Protocol: (§3) Experimental groups: three dosage groups were set up for DPT, 10, 5 and 2.5 mg/kg; the blank control group: cyclophosphamide (CTX) group, Etoposide group 20 mg/kg.
(§4) Administration route: injection via tail vein, it is administered in a dosage of 0.4 ml/20 g body weight. Administration period: the drug is administrated 24 hours after the inoculation, once every two days for four times in total.
(§5) Experimental methods: 60 ICR mice with standard weight of from 18 to 22 g are inoculated with S-180 or Heps solid tumor according to the test method for transplanted tumors, hypodermic inoculation with 0.2 ml is carried out in the armpit in the anterior limb of every mouse. The body weight is determined 24 hours after the inoculation and they are randomly divided into six groups: the blank control group, the CTX group (20 mg/kg), the Etoposide group (20 mg/kg), the DPT group (10, 5 and 2.5 mg/Kg). The drug is administrated 24 hours after the inoculation once for every two days for 4 times, and tumor-bearing mice are killed on the next after drug withdrawal and their body weights are measured, and the separated tumor mess is weighed, and all of the data are subjected to statistical analyses (t-test).

transplanted tumor Heps = conditions: Heps mice; for Body weight After administration / Tumor inhibition rate / Tumor weight: once every two days, four times
Protocol: as §3, §4, §5

human lung cancer A-549 = conditions: cited from earlier work
[2] = test system: Hela (human cervical cancer cell line); test: in vitro growth inhibition of tumor cells, Hela; type: cell-based; conditions: for Inhibition effects on in vitro growth: hela, 48 hours
Protocol: as §1, §2

[3] = test system: C-6 (rat neurogliocytoma cell line); test: in vitro growth inhibition of tumor cells, C-6; type: cell-based; conditions: C6; for Inhibition effects on in vitro growth: 48 hours
Protocol: as §1, §2

[4] = test system: Hep G2 (human hepatic cancer cell line); test: in vitro growth inhibition of tumor cells, Hep G2; type: cell-based; conditions: HepG2, 48 hours
Protocol: as §1, §2

[5] = test system: K-562 (human erythremia cell line); test: in vitro growth inhibition of tumor cells, K-562; type: cell-based; conditions: for Inhibition effects on in vitro growth: K562, 48 hours
Protocol: as §1, §2

[6] = water solubility by the method of Chinese Pharmacopoeia 2005; type: physicochemical; conditions: DPT not included
Protocol: HP-β-CD and DPT are prepared into inclusion complexes under different conditions, and the DPT concentration in the inclusion complex is determined by ultraviolet spectrophotometry, and the composition molar ratio of DPT to HP-β-CD in the inclusion complex is further calculated; the water-solubility of the inclusion complex is determined according to the method specified in the examples of Chinese Pharmacopoeia 2005, so that solubility of DPT in this inclusion complex is further calculated.
With regard to the three factors, namely the concentration of HP-β-CD solution, the temperature for inclusion and the duration for inclusion, orthogonal experiments are carried out on three levels (the concentrations of the HP-β-CD solutions are 10%, 20% and 30%; the temperatures are 40° C., 50° C. and 60° C.; the duration is 1 hour, 2 hour and 3 hour), content and solubility of DPT in the inclusion complex are used as the evaluation parameters for the efficacy of inclusion, and the results are shown in Table 3. The solubility is determined by the method specified in the examples in Chinese Pharmacopoeia 2005, and the results are shown in Table 4.
The DPT content in the inclusion complex is determined by ultraviolet spectrophotometry. The solubility is determined by using the method specified in the examples in Chinese Pharmacopoeia 2005, and the results are shown in Table 6.

[7] = test system: HL-60 (human leukemia cell line); test: in vitro growth inhibition of tumor cells, HL-60; type: cell-based; conditions: for Inhibition effects on in vitro growth: 48 hours
Protocol: as §1, §2

colon cancer HT-29 = conditions: cited from earlier work

COc1cc([C@@H]2c3cc4c(cc3C[C@H]3COC(=O)[C@@H]32)OCO4)cc(OC)c1OC [DPT, Deoxypodophyllotoxin]
in vitro inhibition effects (P-388 leukemia): in vitro inhibition effects
Inhibition effects on in vitro growth ([1]; 5 × 10^−5M): 59.18%
Inhibition effects on in vitro growth ([1]; 10^−5M): 56%
Inhibition effects on in vitro growth ([1]; 10^−6M): 53.5%
Inhibition effects on in vitro growth ([1]; 10^−7M): 52.24%
Inhibition effects on in vitro growth ([1]; 10^−8M): 50.77%
inhibition effects compared with Etoposide ([1]; A-549, 10^−5 to 10^−8 M): significant better than that of Etoposide
Body weight Before administration (transplanted tumor S180; 2.5 mg/kg iv group): 19.70 ± 1.16 g
Body weight After administration (transplanted tumor S180; 2.5 mg/kg iv): 24.90 ± 2.47 g
Tumor weight (transplanted tumor S180; 2.5 mg/kg iv): 1.41 ± 0.30 g
Tumor-inhibition rate (transplanted tumor S180; 2.5 mg/kg iv): 23.44%
Body weight Before administration (transplanted tumor S180; 5 mg/kg iv group): 19.00 ± 0.94 g
Body weight After administration (transplanted tumor S180; 5 mg/kg iv): 22.50 ± 2.55 g
Tumor weight (transplanted tumor S180; 5 mg/kg iv): 1.08 ± 0.26 g
Tumor-inhibition rate (transplanted tumor S180; 5 mg/kg iv): 41.67%
Body weight Before administration (transplanted tumor S180; 10 mg/kg iv group): 19.40 ± 1.71 g
Body weight After administration (transplanted tumor S180; 10 mg/kg iv): 22.50 ± 2.07 g
Tumor weight (transplanted tumor S180; 10 mg/kg iv): 0.84 ± 0.27 g
Tumor-inhibition rate (transplanted tumor S180; 10 mg/kg iv): 54.53%
Body weight Before administration (transplanted tumor Heps; 2.5 mg/kg iv group): 20.20 ± 1.48 g
Body weight After administration (transplanted tumor Heps; 2.5 mg/kg iv): 24.50 ± 2.22 g
Tumor inhibition rate (transplanted tumor Heps; 2.5 mg/kg iv): 32.10%
Tumor weight (transplanted tumor Heps; 2.5 mg/kg iv): 1.34 ± 0.29 g
Body weight Before administration (transplanted tumor Heps; 5 mg/kg iv group): 20.80 ± 1.40 g
Body weight After administration (transplanted tumor Heps; 5 mg/kg iv): 24.00 ± 3.46 g
Tumor inhibition rate (transplanted tumor Heps; 5 mg/kg iv): 42.27%
Tumor weight (transplanted tumor Heps; 5 mg/kg iv): 1.14 ± 0.15 g
Body weight Before administration (transplanted tumor Heps; 10 mg/kg iv group): 21.40 ± 0.84 g
Body weight After administration (transplanted tumor Heps; 10 mg/kg iv): 22.90 ± 2.73 g
Tumor inhibition rate (transplanted tumor Heps; 10 mg/kg iv): 52.09%
Tumor weight (transplanted tumor Heps; 10 mg/kg iv): 0.94 ± 0.32 g
in vitro inhibition effects (human lung cancer A-549): in vitro inhibition effects
inhibition effects compared with Etoposide ([2]; Hela, 10^−5 to 10^−8 M): significant better than that of Etoposide
Inhibition effects on in vitro growth ([2]; 5 × 10^−5M): 62.68%
Inhibition effects on in vitro growth ([2]; 10^−5M): 49.89%
Inhibition effects on in vitro growth ([2]; 10^−6M): 47.9%
Inhibition effects on in vitro growth ([2]; 10^−7M): 46.57%
Inhibition effects on in vitro growth ([2]; 10^−8M): 42.9%
Inhibition effects on in vitro growth ([3]; 5 × 10^−5M): 84.41%
Inhibition effects on in vitro growth ([3]; 10^−5M): 58.54%
inhibition effects compared with Etoposide ([3]; 10^−5 to 10^−8 M): significant better than that of Etoposide
Inhibition effects on in vitro growth ([3]; 10^−6M): 55.01%
Inhibition effects on in vitro growth ([3]; 10^−7M): 54.11%
Inhibition effects on in vitro growth ([3]; 10^−8M): 52.34%
Inhibition effects on in vitro growth ([4]; 5 × 10^−5M): 52.98%
Inhibition effects on in vitro growth ([4]; 10^−5M): 31.85%
Inhibition effects on in vitro growth ([4]; 10^−6M): 22.49%
Inhibition effects on in vitro growth ([4]; 10^−7M): 24.36%
Inhibition effects on in vitro growth ([4]; 10^−8M): 24.32%
Inhibition effects on in vitro growth ([5]; 5 × 10^−5M): 67.05%
Inhibition effects on in vitro growth ([5]; 10^−5M): 54.02%
Inhibition effects on in vitro growth ([5]; 10^−6M): 50.95%
Inhibition effects on in vitro growth ([5]; 10^−7M): 43.77%
Inhibition effects on in vitro growth ([5]; 10^−8M): 35.82%
inhibition effects compared with Etoposide ([5]; K-562, 10^−5 to 10^−8 M): significant better than that of Etoposide
solubility of DPT in water [6]: about 0.5 mg/L
Inhibition effects on in vitro growth ([7]; 5 × 10^−5M): 57.37%
Inhibition effects on in vitro growth ([7]; 10^−5M): 39.41%
inhibition effects compared with Etoposide ([7]; 10^−5 to 10^−8 M): significant better than that of Etoposide
Inhibition effects on in vitro growth ([7]; 10^−6M): 36.83%
Inhibition effects on in vitro growth ([7]; 10^−7M): 29.27%
Inhibition effects on in vitro growth ([7]; 10^−8M): 14.96%
in vitro inhibition effects (colon cancer HT-29): in vitro inhibition effects
